Results as given in PubChem BioAssay (NCI).
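How tested: cells in 96-well plates exposed to compound for 48 hours at five concentrations. GI50 is the concentration that inhibits growth by half. TGI marks complete inhibition of growth.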

What was measured:
Test in all cases: NCI tumour cell line growth inhibition, 48 h
[1] = test system: SNB-75 CNS
[2] = test system: HCC-2998 colon
[3] = test system: K-562 leukemia
[4] = test system: SF-539 CNS
[5] = test system: MALME-3M melanoma
[6] = test system: SNB-19 CNS
[7] = test system: CCRF-CEM leukemia
[8] = test system: SF-268 CNS
[9] = test system: T-47D breast
[10] = test system: BT-549 breast

| SMILES | TGI [1] [µM] | TGI [2] [µM] | TGI [3] [µM] | TGI [4] [µM] | TGI [5] [µM] | TGI [6] [µM] | TGI [7] [µM] | TGI [8] [µM] | TGI [9] [µM] | GI50 [1] [µM] | GI50 [2] [µM] | GI50 [3] [µM] | GI50 [10] [µM] | TGI [10] [µM] | GI50 [4] [µM] | GI50 [6] [µM] | GI50 [7] [µM] | GI50 [8] [µM] | GI50 [5] [µM] | GI50 [9] [µM] |
| --- | --- | --- | --- | --- | --- | --- | --- | --- | --- | --- | --- | --- | --- | --- | --- | --- | --- | --- | --- | --- |
| O=c1c(-c2ccccc2)c2oc(c1-c1ccccc1)CSCc1cccc(c1)CSC2 | 69.1 | > 100 | > 100 | 60.4 | > 100 | > 100 | > 100 | 85.2 | – | – | – | – | – | – | – | – | – | – | – | – |
| COC(=O)C(CCCN1C(=O)c2ccccc2C1=O)C(=O)OC | > 100 | > 100 | > 100 | > 100 | > 100 | > 100 | > 100 | > 100 | – | – | – | – | – | – | – | – | – | – | – | – |
| C#CCn1c(=O)c2ccccc2n(CC#C)c1=O | > 10 | > 10 | > 10 | > 10 | > 10 | > 10 | > 10 | > 10 | > 10 | – | – | – | – | – | – | – | – | – | – | – |
| CCCCCC[C@@H]1CCC2C(CO)[C@@H](O)CC[C@@H]2C1 (stereo partly drawn) | 37.6 | 37 | > 100 | 33.1 | 36.1 | 35.8 | 79.9 | 32.6 | – | – | – | – | – | – | – | – | – | – | – | – |
| CC1SC(c2ccc(F)cc2)N(NC(=O)C(O)c2ccccc2)C1=O (stereo not drawn) | > 100 | > 100 | > 100 | > 100 | – | > 100 | > 100 | > 100 | – | > 100 | > 100 | > 100 | > 100 | > 100 | > 100 | > 100 | > 100 | > 100 | – | – |
| CCCOc1cc2ccccc2cc1C(=O)Nc1nc(N)c2c(ccc3nccc32)[nH]1 | – | 1.86 | 1.26 | 1.04 | 2.62 | 2.08 | 1.49 | 2.86 | 3.17 | – | 0.22 | 0.0339 | 0.0998 | 2.11 | 0.0538 | 0.0655 | 0.042 | 0.0658 | 1.13 | 0.499 |
| O=C(/C=C/c1ccc([N+](=O)[O-])cc1)c1ccc(NCc2nc3ccccc3[nH]2)cc1 | 31.5 | 6.38 | 7.03 | 8.08 | 28.3 | 14.5 | 6.16 | 26.6 | – | – | – | – | – | – | – | – | – | – | – | – |
| C=CC[C@H](C[C@H](C[C@H](C[C@H](C[C@H](C[C@H](C[C@H](C[C@H](C[C@H](C[C@H](CCCCC)OC)OC)OC)OC)OC)OC)OC)OC)OC)OC | > 100 | > 100 | > 100 | > 100 | > 100 | > 100 | > 100 | > 100 | – | – | – | – | – | – | – | – | – | – | – | – |
| Oc1[nH]c2ccccc2c1N=Nc1nc(-c2ccc(Br)cc2)cs1 | 46.6 | > 100 | – | 34.3 | – | 40.7 | 61.8 | 46.8 | – | – | – | – | – | 45.6 | – | – | – | – | – | – |
| CC(=O)O/N=C(/C)c1ccccc1O | > 100 | > 100 | > 100 | > 100 | > 100 | > 100 | > 100 | > 100 | – | – | – | – | – | – | – | – | – | – | – | – |
| CCCCN(CCCC)C(=O)C(=O)C(C(=O)c1ccc(OC)cc1)c1ccc(OC)cc1 (stereo not drawn) | – | > 100 | > 100 | > 100 | > 100 | > 100 | > 100 | > 100 | – | – | – | – | – | – | – | – | – | – | – | – |
| CCc1c(OC(C)=O)c2c(NC3OCC(OC(C)=O)C(OC(C)=O)C3OC(C)=O)nc(SC)nc2oc1=O (stereo not drawn) | > 100 | > 100 | > 100 | > 100 | > 100 | > 100 | > 100 | – | – | – | – | – | – | – | – | – | – | – | – | – |
| O=[N+]([O-])c1ccc(Cl)cc1N/N=C/c1ccnc2ccccc12 | > 100 | > 100 | > 100 | 49.5 | – | > 100 | > 100 | > 100 | > 100 | – | – | – | – | > 100 | – | – | – | – | – | – |
| COc1ccc(OC)c(N2CC(N)C2=O)c1 (stereo not drawn) | > 100 | > 100 | > 100 | > 100 | > 100 | > 100 | > 100 | > 100 | – | – | – | – | – | – | – | – | – | – | – | – |
| O=C(Oc1ccc(Cl)cc1)c1ccccc1Nc1ccnc(C(F)(F)F)c1 | – | 27.6 | 87.8 | 32.7 | – | – | 52.8 | 17.4 | – | – | 13.6 | 3.65 | 14.9 | 41.2 | 15 | – | 4.94 | 4.32 | – | – |
| COc1ccc(-c2cn[nH]c2-c2cc(OC)c(OC)c(OC)c2)cc1 | 33.6 | 15 | 26.7 | 0.0566 | – | > 74.9 | > 42.6 | 31.5 | – | 0.022 | 0.0432 | < 0.0109 | – | – | 0.0218 | 0.0631 | 0.0353 | 0.0795 | – | – |
| COc1cc(C2CC(C)(O)Oc3cc4c(cc32)OCO4)cc(OC)c1OC (stereo not drawn) | – | 34.8 | > 100 | 0.518 | – | > 100 | > 100 | > 100 | > 100 | – | – | – | – | > 100 | – | – | – | – | – | – |
| Cc1ccc(/C=C/C(=O)c2cccc3ccccc23)cc1 | 34.6 | 37.7 | 44.3 | – | 28.6 | 29.6 | 67 | 33.1 | – | – | – | – | – | – | – | – | – | – | – | – |
| Cc1cccc(C)c1NC(=O)CCCC(=O)C1/C(=N/NC(=O)CC#N)CCC/C1=N\NC(=O)CC#N (stereo not drawn) | > 100 | > 100 | > 100 | > 100 | > 100 | > 100 | > 100 | > 100 | – | – | – | – | – | – | – | – | – | – | – | – |
| C[C@]12CCC3c4ccc(O)cc4CCC3C1CC[C@@]2(O)CNC(=O)/C=C/c1ccc(O)c(O)c1 (stereo partly drawn) | 29 | 23.4 | 12.6 | 18 | – | 23.8 | 31.2 | > 100 | 23.9 | 13.2 | 10.8 | 3.38 | 3.03 | 15.3 | 5.1 | 10.6 | 4.33 | 9.45 | – | 6.61 |
| O=C1C=CC(=O)c2nc3c(cc21)CCC3 | > 100 | > 100 | 39.3 | – | 31.4 | > 100 | 25.6 | 37.3 | – | – | – | – | – | – | – | – | – | – | – | – |
